Measurements published in patent publication EP3375430A1, “FRAGRANCE COMPOSITIONS” (Takasago International Corporation, priority 2017, dated 2018).

Test: Amount of fragrance ingredients retained on paper blotter after evaporation (ethanol extraction, GC-MS)
Type: physicochemical
Conditions: Table 9
Method: A fragrance (hereafter fragrance TAK, the formulation of which is shown in table 1) was formulated in a typical Eau de Toilette (EdT1) or in fragrance compositions according to the invention (compositions C1 to C4), as shown in table 2. The amount of individual fragrance ingredients retained on paper substrate (blotter) after set time periods was assessed by the following method.
100µL samples of either EdT1 or compositions C1 to C4 were applied to 4.5cm long standard paper blotters with a microsyringe. Three replicate blotters were prepared for each extraction time. After the appropriate evaporation time each of the 3 blotters was transferred to a 30mL glass bottle. 3mL of ethanol and 50µL of a 1% solution of methyl decanoate in ethanol as an internal standard were added. The bottle was sealed and placed on a roller bed to extract the blotter for 1 hour. A sample of the extracting solution was transferred to a vial which was sealed and analysed by gas chromatography (GC 6890) with a Mass Spectrometer detector (MS 5973) using the method described below. The results of the three replicate measurements were averaged. At exact times the same extraction was repeated on the remaining blotters which were stored on a warm surface at 32°C open to the air to allow evaporation. The gas chromatography conditions were as given below.
• Initial Temp: 50°C • Initial Time: 2 min • Rate: 10°C /min • Final Temp: 280°C • Final Time: 5 min • Run Time: 30 min
• Column: HP-5MS 30m * 0.25mm * 0.25µm • Gas: Helium • Constant Pressure 18.55 psi
• Split mode Ratio 40:1 • Inlet Temp: 250°C
• MS 5973 • Mass range: 35 to 350 • Threshold: 100 • Mass Quad: 150°C • Mass Source: 230°C
To simplify the results the average amount of each fragrance ingredient from the 3 samples measured at time zero was set at 100% and all other measurements were then related to that value so tables 3 to 6 show decreasing amounts of fragrance ingredients as a percentage of the initial amount.
The method of example 1 was repeated using a commercial fragrance (hereafter fragrance COM1, the formulation of which is given in table 7) formulated in a typical Eau de Toilette (EdT2) or in fragrance compositions according to the invention (compositions C5 and C6), as shown in table 8.

[1] = fragrance COM1 in C5, T0 + 15 min
[2] = fragrance COM1 in C5, T0 + 480 min
[3] = fragrance COM1 in C5, T0 +1440 min
[4] = fragrance COM1 in C6, T0 + 15 min
[5] = fragrance COM1 in C6, T0 + 480 min
[6] = fragrance COM1 in C6, T0 +1440 min
[7] = fragrance COM1 in EdT2, C5 or C6, T0, set at 100% (normalisation)
[8] = fragrance COM1 in EdT2, T0 + 15 min
[9] = fragrance COM1 in EdT2, T0 + 480 min
[10] = fragrance COM1 in EdT2, T0 +1440 min

SMILES | amount of fragrance ingredient retained on blotter (percentage of the initial amount) [1] [%] | amount of fragrance ingredient retained on blotter (percentage of the initial amount) [2] [%] | amount of fragrance ingredient retained on blotter (percentage of the initial amount) [3] [%] | amount of fragrance ingredient retained on blotter (percentage of the initial amount) [4] [%] | amount of fragrance ingredient retained on blotter (percentage of the initial amount) [5] [%] | amount of fragrance ingredient retained on blotter (percentage of the initial amount) [6] [%] | amount of fragrance ingredient retained on blotter (percentage of the initial amount) [7] [%] | amount of fragrance ingredient retained on blotter (percentage of the initial amount) [8] [%] | amount of fragrance ingredient retained on blotter (percentage of the initial amount) [9] [%] | amount of fragrance ingredient retained on blotter (percentage of the initial amount) [10] [%]
CC1(C)CCC[C@]2(C)[C@H]3CCO[C@]3(C)CC[C@@H]12 [Ambroxan™, (3aR,5aS,9aS,9bR)-3a,6,6,9a-tetramethyl-2,4,5,5a,7,8,9,9b-octahydro-1H-benzo[e][1]benzofuran] | 85.4 | 68.9 | 40.11 | 75.6 | 52.6 | 29.9 | 100 | 81.5 | 56.6 | 15.42
CC(C)(C)c1ccc(CCC=O)cc1 [Bourgeonal™, 3-(4-tert-butylphenyl)propanal] | 86 | 59.8 | 28.82 | 75.6 | 43.6 | 20.9 | 100 | 81.4 | 43.9 | 13.42
CC(C=O)Cc1ccc(C(C)C)cc1 (stereo not shown) [Cyclamen aldehyde] | 85.8 | 45.2 | 14.71 | 75.4 | 33.2 | 12.0 | 100 | 81.5 | 30.7 | 7.12
CC=CC(=O)C1=C(C)CCCC1(C)C [Damascone beta] | 81.9 | 20.5 | 2.12 | 74.8 | 14.7 | 1.9 | 100 | 78.2 | 10.6 | 4.25
